Assay results published in PubChem BioAssay AID1259407 (Chemical Carcinogenesis Research Information System (CCRIS), 2018).
Calls of active or inactive are those of the source. No rule for the calls is given here.

System: CCRIS mutagenicity, Ames/micronucleus/aberration tests
Experiment: CCRIS mutagenicity studies
Settings: Test System: E. COLI, Metabolic Activation: NONE, Method: PREINCUBATION
Source text: The CCRIS database contains chemical records with carcinogenicity, mutagenicity, tumor promotion, and tumor inhibition test results. It was developed by the National Cancer Institute (NCI). Data are derived from studies cited in primary journals, current awareness tools, NCI reports, and other sources. Test results have been reviewed by experts in carcinogenesis and mutagenesis.
CCRIS provides historical information from the years 1985 - 2011. It is no longer updated.
This is an archive assay for CCRIS mutagenicity studies.

Measured: mutagenic call

O[C@H]1[C@@H]2O[C@@H]2c2c(ccc3ccc4ccccc4c23)[C@@H]1O
active: Strain/Indicator: CL101P active; positive | Strain/Indicator: CL102P active; positive | Strain/Indicator: CL103P active; positive | Strain/Indicator: CL104P active; positive | Strain/Indicator: CL105P active; positive | Strain/Indicator: CL106P active; positive
